System: NativeSkin® human skin tissues
Test: Gene expression assay (Genemarkers Standard Skin Panel, qPCR) in ex vivo skin
Type: cell-based
Conditions: 24 hrs, N=4
Procedure: This study was conducted to determine how different concentrations (0.316 μM-10.0 mM) of xanthommatin influences gene expression in ex vivo NativeSkin® human skin tissues (purchased from Genoskin). NativeSkin® human skin models hold normal skin barrier function, a mature stratum corneum, a functional basal layer and all cell types and skin appendages of in vivo human skin.
Gene expression was assessed using Genemarkers Standard Skin Panel, a qPCR-based gene expression panel which contains 107 target genes potentially relevant in skin biology and 5 endogenous control genes. Gene expression was assessed 24 hrs following application of the test material to the skin tissues.
Formulation design. A gel containing either 0.1% or 0.4% (Table 1) by mass percentage of ammonium xanthommatin (Xa) was prepared. Phase A was initiated by adding 0.3 wt % of carbomer into the water without stirring. Next, the solution was heated to 75° C. with mixing to allow the carbomer to disperse throughout the mixture before ammonium xanthommatin was slowly added and allowed to mix for full dissolution. In a separate reaction vessel, Phase B was created with glycerin (3.5%) and phenoxyethanol (0.95%) and mixed well. Phase B was then added to Phase A. The final phase (Phase C), containing 4% deionized water and 0.4% sodium hydroxide, was added to the main phase for neutralization. The gel was then cooled to room temperature.
Tissue equilibration. Native tissues (Genoskin) were equilibrated overnight at 37° C. with 5% CO2 and ˜95% relative humidity. The following day, the equilibrium medium was removed from each well and replaced with 1.0 mL of maintenance medium.
Treatment Media. Tissues were obtained from the abdomen of a person with Fitzpatrick type 2-3 skin. Genoskin facilities mounted 11 mm biopsies into Nativeskin tissue inserts which were used for genetic analysis 5 days later. N=4 biological replicates per treatment group. For WST-8 (−) control tissue (N=2), 10 μL of Triton X-100 (1%) was applied to the surface of the tissue; two untreated tissues served as the WST-8 control.
Tissue and medium collections. A 2 mm biopsy punch was taken from the center for the WST-8 assay. Remaining tissues were placed in a tube containing RNAlater preservative solutions. Tissues were incubated for 1-2 hrs until RNA was isolated. RNA was isolated using an RNeasy Mini kit (Qiagen) following the manufacturer's instructions. Each sample was vacuum concentrated to at least 200 ng/μL to provide sufficient amount of RNA for cDNA synthesis. RNA concentration and purity were determined using a Nanodrop 2000 spectrophotometer.
cDNA was generated using a High Capacity cDNA Synthesis Kit (Applied Biosystems) and was generated from 2000 ng RNA per sample for OpenArray processing. qPCR data quality and statistical analysis was assessed and performed on the raw data files using ThermoFisher Connect Software (Life Technologies). Statistical analysis was performed using the relative quantitation (RQ) method, where the Cq value of the target gene is normalized to the Cq value of an endogenous control gene (selected from one of GAPDH, GUSB, HPRT1, PPIA, and UBC) to generate the delta Cq values, which were used to normalize variability between the samples.
Statistical analysis. Unpaired t-tests were carried out using the ThermoFisher Connect software.

## NC(CC(=O)c1cccc2oc3cc(=O)c4[nH]c(C(=O)O)cc(=O)c4c-3nc12)C(=O)O (stereo not drawn) [ammonium xanthommatin]
3.16 mM (0.1%) dose group
  HAS2 (Hyaluronan synthase 2) gene expression, % Change: 74%
  HAS2 (Hyaluronan synthase 2) gene expression, FC (linear fold change): 1.74
  HAS2 (Hyaluronan synthase 2) gene expression, Rq: 1.74
10 mM (0.4%) dose group
  COL1A1 (collagen) gene expression, % Change: 153%
  COL1A1 (collagen) gene expression, FC (linear fold change): 2.53
  COL1A1 (collagen) gene expression, Rq: 2.525
  COL3A1 (collagen) gene expression, % Change: 137%
  COL3A1 (collagen) gene expression, FC (linear fold change): 2.37
  COL3A1 (collagen) gene expression, Rq: 2.37
  FOXO3 (subclass of the forkhead family of transcription factors) gene expression, % Change: 114%
  FOXO3 (subclass of the forkhead family of transcription factors) gene expression, FC (linear fold change): 2.14
  FOXO3 (subclass of the forkhead family of transcription factors) gene expression, Rq: 2.142
  HSPG2 (Heparan Sulfate Proteoglycan 2) gene expression, % Change: 48%
  HSPG2 (Heparan Sulfate Proteoglycan 2) gene expression, FC (linear fold change): 1.48
  HSPG2 (Heparan Sulfate Proteoglycan 2) gene expression, Rq: 1.477
  IGF1R (insulin-like growth factor 1) gene expression, % Change: 26%
  IGF1R (insulin-like growth factor 1) gene expression, FC (linear fold change): 1.26
  IGF1R (insulin-like growth factor 1) gene expression, Rq: 1.257
  ITGB4 (Integrin alpha-6/beta-4 is a receptor for laminin) gene expression, % Change: 58%
  ITGB4 (Integrin alpha-6/beta-4 is a receptor for laminin) gene expression, FC (linear fold change): 1.58
  ITGB4 (Integrin alpha-6/beta-4 is a receptor for laminin) gene expression, Rq: 1.582
  KRT14 (keratin 14) gene expression, % Change: 72%
  KRT14 (keratin 14) gene expression, FC (linear fold change): 1.72
  KRT14 (keratin 14) gene expression, Rq: 1.721
  MFN2 (mitofusin 2) gene expression, % Change: 45%
  MFN2 (mitofusin 2) gene expression, FC (linear fold change): 1.45
  MFN2 (mitofusin 2) gene expression, Rq: 1.447
  POLG1/MDP1 (DNA Polymerase Gamma) gene expression, % Change: 71%
  POLG1/MDP1 (DNA Polymerase Gamma) gene expression, FC (linear fold change): 1.71
  POLG1/MDP1 (DNA Polymerase Gamma) gene expression, Rq: 1.713
  ST14 (Suppressor of tumorigenicity 14 protein) gene expression, % Change: 39%
  ST14 (Suppressor of tumorigenicity 14 protein) gene expression, FC (linear fold change): 1.39
  ST14 (Suppressor of tumorigenicity 14 protein) gene expression, Rq: 1.385

From patent publication US20250228759A1, “ANTI-AGING COSMETIC COMPOSITIONS COMPRISING XANTHOMMATIN” (SEASPIRE, INC., priority 2021, published 2025)
